Assay [1] has as its target T1, Recombinant STAT3 protein (STAT3(G127-I722)) (Homo sapiens, UniProt P40763).
T1 construct: STAT3(G127-I722)
Kind of assay: STAT3 Fluorescence Polarization (FP) Assay. Format: binding. To be noted: STAT3(G127-I722) 25 nM, probe 5-FAM-GpYLPQTV-NH2 2 nM, 45-minute incubation. Put shortly:
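Serially diluted compounds (1% DMSO) were mixed with 2 nM fluorescent phosphotyrosine peptide and 25 nM STAT3 construct G127-I722, pH 7.4, incubated 45 min at room temperature. IC50 values from fitted polarization curves are reported as categories A (≤100 nM), B, C, D (>10 μM).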

For assay [2], the target named is T2, Recombinant STAT6 protein (STAT6(W123-T658)) (Homo sapiens, UniProt P42226).
T2 construct: STAT6(W123-T658)
T2 sequence (P42226 123-658): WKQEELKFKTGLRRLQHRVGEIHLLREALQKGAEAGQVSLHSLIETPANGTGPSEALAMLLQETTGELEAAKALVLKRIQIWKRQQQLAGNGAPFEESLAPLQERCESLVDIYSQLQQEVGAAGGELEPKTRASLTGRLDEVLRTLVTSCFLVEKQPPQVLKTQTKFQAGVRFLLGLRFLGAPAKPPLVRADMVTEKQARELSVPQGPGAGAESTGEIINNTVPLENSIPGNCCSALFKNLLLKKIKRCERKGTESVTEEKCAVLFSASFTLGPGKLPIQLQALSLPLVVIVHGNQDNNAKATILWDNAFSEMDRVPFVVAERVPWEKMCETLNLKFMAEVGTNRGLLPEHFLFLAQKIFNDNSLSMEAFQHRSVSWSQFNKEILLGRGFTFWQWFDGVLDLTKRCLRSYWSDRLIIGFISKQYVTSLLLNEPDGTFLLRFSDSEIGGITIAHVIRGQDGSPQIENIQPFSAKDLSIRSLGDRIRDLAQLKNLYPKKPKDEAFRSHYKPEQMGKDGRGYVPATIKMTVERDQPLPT
Kind of assay: STAT6 Fluorescence Polarization (FP) Assay. Format: binding. To be noted: STAT6(W123-T658) 250 nM, probe 5-FAM-ApYKPFQDLI-NH2 2 nM, 45-minute incubation. In short, it runs like this:
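Competitive displacement of a fluorescent phosphotyrosine peptide (2 nM) from recombinant STAT6 W123-T658 (250 nM), 45 min at room temperature in 10 mM HEPES pH 7.4, 50 mM NaCl, 2 mM DTT. mP fitted against log compound for IC50, grouped A (≤300 nM) to D (>30 μM).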
(In general: Polarisation of emitted light reports the rotation of a fluorescent probe.)

T1 sequence (P40763 127-722, species assumed): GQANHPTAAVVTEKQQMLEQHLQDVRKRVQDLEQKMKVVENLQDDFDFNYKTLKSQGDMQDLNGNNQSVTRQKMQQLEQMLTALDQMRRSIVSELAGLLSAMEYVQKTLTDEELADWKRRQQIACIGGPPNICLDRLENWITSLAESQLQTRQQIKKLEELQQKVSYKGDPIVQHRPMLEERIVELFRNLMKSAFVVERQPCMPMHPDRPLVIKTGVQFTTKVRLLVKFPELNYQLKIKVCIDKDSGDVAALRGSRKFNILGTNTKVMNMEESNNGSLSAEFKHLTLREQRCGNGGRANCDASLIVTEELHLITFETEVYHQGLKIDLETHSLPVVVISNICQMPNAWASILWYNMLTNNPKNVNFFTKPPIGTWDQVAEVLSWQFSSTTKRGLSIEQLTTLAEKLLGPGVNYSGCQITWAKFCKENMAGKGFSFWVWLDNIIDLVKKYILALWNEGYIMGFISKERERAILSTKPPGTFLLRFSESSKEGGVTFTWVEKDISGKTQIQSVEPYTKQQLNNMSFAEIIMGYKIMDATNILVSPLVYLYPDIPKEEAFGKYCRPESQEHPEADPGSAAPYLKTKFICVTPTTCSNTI

For the compound `NC(=O)N1C[C@H](NC(=O)[C@@H]2CC[C@@H]3C[C@H]4C[C@H]4C[C@H](NC(=O)c4cc5cc(C(F)P(=O)(O)O)ccc5s4)C(=O)N32)[C@@H](F)C1` (stereo partly drawn) [Example 330, ((2-(((3S,6S,7aS,8aR,9aR)-3-(((3S,4S)-1-carbamoyl-4-fluoropyrrolidin-3-yl)carbamoyl)-5-oxodecahydro-1H-cyclopropa[d]pyrrolo[1,2-a]azocin-6-yl)carbamoyl)benzo[b]thiophen-5-yl)fluoromethyl)phosphonic acid], the half-maximal inhibitory concentration (IC50) in assay [1] was less than 100 nM; in assay [2], 300 to 3000 nM.
The matching figures for `Cc1ccncc1N1C[C@H](NC(=O)[C@@H]2CC[C@@H]3C[C@H]4C[C@H]4C[C@H](NC(=O)c4cc5cc(CP(=O)(O)O)ccc5s4)C(=O)N32)[C@@H](F)C1` [Example 278, ((2-(((3S,6S,7aS,8aR,9aR)-3-(((3S,4S)-4-fluoro-1-(4-methylpyridin-3-yl)pyrrolidin-3-yl)carbamoyl)-5-oxodecahydro-1H-cyclopropa[d]pyrrolo[1,2-a]azocin-6-yl)carbamoyl)benzo[b]thiophen-5-yl)methyl)phosphonic acid]: 100 to 1000 nM and greater than 30000 nM.
For `O=C(NC1C[C@@H]2C[C@@H]2C[C@H]2CC[C@@H](C(=O)N3CC(C(=O)N4CCOCC4)C3)N2C1=O)c1cc2cc(CP(=O)(O)O)ccc2s1` (stereo partly drawn) [Compound 20, ((2-(((3S,7aS,8aR,9aR)-3-(3-(morpholine-4-carbonyl)azetidine-1-carbonyl)-5-oxodecahydro-1H-cyclopropa[d]pyrrolo[1,2-a]azocin-6-yl)carbamoyl)benzo[b]thiophen-5-yl)methyl)phosphonic acid], the IC50 in assay [1] is 1000 to 10000 nM; in assay [2] it was greater than 30000 nM.
The matching figures for `O=C(N[C@H]1C[C@@H]2C[C@@H]2C[C@H]2CC[C@@H](C(=O)N3CCN(c4ccccn4)CC3)N2C1=O)c1cc2cc(C(F)(F)P(=O)(O)O)ccc2s1` [Compound 113, (difluoro(2-(((3S,6S,7aS,8aR,9aR)-5-ox0-3-(4-(pyridin-2-yl)piperazine-1-carbonyl)decahydro-1H-cyclopropa[d]pyrrolo[1,2-a]azocin-6-yl)carbamoyl)benzo[b]thiophen-5-yl)methyl)phosphonic acid]: 100 to 1000 nM and 3000 to 30000 nM.
As to `O=C(N[C@H]1C[C@@H]2C[C@@H]2C[C@H]2CC[C@@H](C(=O)N3CC(Cc4ccccc4F)C3)N2C1=O)c1cc2cc(CP(=O)(O)O)ccc2s1` [Example 368, ((2-(((3S,6S,7aS,8aR,9aR)-3-(3-(2-fluorobenzyl)azetidine-1-carbonyl)-5-oxodecahydro-1H-cyclopropa[d]pyrrolo[1,2-a]azocin-6-yl)carbamoyl)benzo[b]thiophen-5-yl)methyl)phosphonic acid], the figures for the half-inhibitory concentration (IC50) in assay [1] and in assay [2] were 1000 to 10000 nM and 3000 to 30000 nM, respectively.
For `CC(=O)N1C[C@H](NC(=O)[C@@H]2CC[C@@H]3C[C@@H]4C[C@@H]4C[C@H](NC(=O)c4cc5cc(C(F)P(=O)(O)O)ccc5s4)C(=O)N32)[C@@H](F)C1` (stereo partly drawn) [Example 254, ((2-(((3S,6S,7aR,8aS,9aR)-3-(((3S,4S)-1-acetyl-4-fluoropyrrolidin-3-yl)carbamoyl)-5-oxodecahydro-1H-cyclopropa[d]pyrrolo[1,2-a]azocin-6-yl)carbamoyl)benzo[b]thiophen-5-yl)fluoromethyl)phosphonic acid], in that order: 100 to 1000 nM and 300 to 3000 nM.
For `CN(C)c1ccncc1[C@@H]1CN(C(=O)[C@@H]2CC[C@@H]3C[C@H]4C[C@H]4C[C@H](NC(=O)c4cc5cc([C@H](F)P(=O)(O)O)ccc5s4)C(=O)N32)C2(CC2)C1` (single isomer, unassigned) [Example 433], in that order: less than 100 nM and 300 to 3000 nM.
For `CCc1ccncc1C1CN(C(=O)[C@@H]2CC[C@@H]3C[C@@H]4C[C@@H]4C[C@H](NC(=O)c4cc5cc([C@H](F)P(=O)(O)O)ccc5s4)C(=O)N32)C1` (single isomer, unassigned) [Example 345], in that order: less than 100 nM and 3000 to 30000 nM.
Take `O=C(N[C@H]1C[C@H]2C[C@H]2C[C@H]2CC[C@@H](C(=O)N3CC(n4ccnc4)C3)N2C1=O)c1cc2cc(CP(=O)(O)O)ccc2s1` [Compound 25, ((2-(((3S,6S,7aR,8aS,9aR)-3-(3-(1H-imidazol-1-yl)azetidine-1-carbonyl)-5-oxodecahydro-1H-cyclopropa[d]pyrrolo[1,2-a]azocin-6-yl)carbamoyl)benzo[b]thiophen-5-yl)methyl)phosphonic acid]: the IC50 in assay [1] is 100 to 1000 nM; in assay [2], greater than 30000 nM.
Turning to `O=C(N[C@H]1C[C@@H]2C[C@@H]2C[C@H]2CC[C@@H](C(=O)N[C@@H]3CCN(c4cn[nH]c4)C3)N2C1=O)c1cc2cc(C(F)(F)P(=O)(O)O)ccc2s1` [Compound 120, ((2-(((3S,6S,7aS,8aR,9aR)-3-(((R)-1-(1H-pyrazol-4-yl)pyrrolidin-3-yl)carbamoyl)-5-oxodecahydro-1H-cyclopropa[d]pyrrolo[1,2-a]azocin-6-yl)carbamoyl)benzo[b]thiophen-5-yl)difluoromethyl)phosphonic acid], the 50% inhibitory concentration (IC50) in assay [1] lay within 100 to 1000 nM; in assay [2], 300 to 3000 nM.
The matching figures for `O=C(N[C@H]1C[C@@H]2C[C@@H]2C[C@H]2CC[C@@H](C(=O)N3CC(c4ccon4)C3)N2C1=O)c1cc2cc(C(F)P(=O)(O)O)ccc2s1` (stereo partly drawn) [Example 312, (fluoro(2-(((3S,6S,7aS,8aR,9aR)-3-(3-(isoxazol-3-yl)azetidine-1-carbonyl)-5-oxodecahydro-1H-cyclopropa[d]pyrrolo[1,2-a]azocin-6-yl)carbamoyl)benzo[b]thiophen-5-yl)methyl)phosphonic acid]: less than 100 nM and 3000 to 30000 nM.
For `O=C(N[C@H]1C[C@@H]2C[C@@H]2C[C@H]2CC[C@@H](C(=O)N3CC(Cc4ccncc4)C3)N2C1=O)c1cc2cc(CP(=O)(O)O)ccc2s1` [Example 352, ((2-(((3S,6S,7aS,8aR,9aR)-5-oxo-3-(3-(pyridin-4-ylmethyl)azetidine-1-carbonyl)decahydro-1H-cyclopropa[d]pyrrolo[1,2-a]azocin-6-yl)carbamoyl)benzo[b]thiophen-5-yl)methyl)phosphonic acid], in that order: 100 to 1000 nM and greater than 30000 nM.
For `O=C(N[C@H]1C[C@@H]2C[C@@H]2C[C@H]2CC[C@@H](C(=O)N3CC(c4ncco4)C3)N2C1=O)c1cc2cc(C(F)(F)P(=O)(O)O)ccc2s1` [Example 300, (difluoro(2-(((3S,6S,7aS,8aR,9aR)-3-(3-(oxazol-2-yl)azetidine-1-carbonyl)-5-oxodecahydro-1H-cyclopropa[d]pyrrolo[1,2-a]azocin-6-yl)carbamoyl)benzo[b]thiophen-5-yl)methyl)phosphonic acid], in that order: less than 100 nM and 300 to 3000 nM.
Turning to `O=C(N[C@H]1C[C@@H]2C[C@@H]2C[C@H]2CC[C@@H](C(=O)N[C@H]3CN(c4cncnc4)C[C@@H]3F)N2C1=O)c1cc2cc(CP(=O)(O)O)ccc2s1` [Example 279, ((2-(((3S,6S,7aS,8aR,9aR)-3-(((3S,4S)-4-fluoro-1-(pyrimidin-5-yl)pyrrolidin-3-yl)carbamoyl)-5-oxodecahydro-1H-cyclopropa[d]pyrrolo[1,2-a]azocin-6-yl)carbamoyl)benzo[b]thiophen-5-yl)methyl)phosphonic acid], the IC50 in assay [1] is greater than 10000 nM; in assay [2] it was greater than 30000 nM.
For `O=C(N[C@H]1C[C@@H]2C[C@@H]2C[C@H]2CC[C@@H](C(=O)N3CC(c4cncnc4)C3)N2C1=O)c1cc2cc(C(F)(F)P(=O)(O)O)ccc2s1` [Compound 61, (difluoro(2-(((3S,6S,7aS,8aR,9aR)-5-oxo-3-(3-(pyrimidin-5-yl)azetidine-1-carbonyl)decahydro-1H-cyclopropa[d]pyrrolo[1,2-a]azocin-6-yl)carbamoyl)benzo[b]thiophen-5-yl)methyl)phosphonic acid], in that order: less than 100 nM and 3000 to 30000 nM.
The matching figures for `O=C(N[C@H]1C[C@H]2C[C@H]2C[C@H]2CC[C@@H](C(=O)N3CC(c4cnccc4N4CCOCC4)C3)N2C1=O)c1cc2cc([C@@H](F)P(=O)(O)O)ccc2s1` (single isomer, unassigned) [Example 391]: less than 100 nM and greater than 30000 nM.
`O=C(N[C@H]1C[C@@H]2C[C@@H]2C[C@H]2CC[C@@H](C(=O)N3CCC34CCCCC4)N2C1=O)c1cc2cc(C(F)P(=O)(O)O)ccc2s1` (stereo partly drawn) [Example 388, (fluoro(2-(((3S,6S,7aS,8aR,9aR)-5-oxo-3-(1-azaspiro[3.5]nonane-1-carbonyl)decahydro-1H-cyclopropa[d]pyrrolo[1,2-a]azocin-6-yl)carbamoyl)benzo[b]thiophen-5-yl)methyl)phosphonic acid]: the IC50 in assay [1] was 1000 to 10000 nM; in assay [2], 3000 to 30000 nM.

For orientation: IC50 means the concentration that gives 50% inhibition.

The values above are taken from patent US20250215030A1, “STAT MODULATORS AND USES THEREOF” (Recludix Pharma, Inc., priority 2022, published 2025).
